Results from ChEMBL document CHEMBL1201862, “PubChem BioAssay data set” (2004).
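Cells were grown in 96-well plates and exposed to each compound for 48 hours at five concentrations; endpoints were interpolated linearly between bracketing concentrations, or set to the highest concentration if not reached. Here, GI50 denotes the concentration required for 50% inhibition of growth.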 The source made the active and inactive calls. No stated cut-off is given here; in the data, active = GI50 up to about 1.1 µM and inactive = higher.

Tests used:
Test in all cases: DTP human tumour cell line panel, 48 h
[1] = test system: HOP-92
[2] = test system: EKVX
[3] = test system: HCT-15
[4] = test system: HCT-116
[5] = test system: SF-295
[6] = test system: A498
[7] = test system: PC-3
[8] = test system: SF-539
[9] = test system: UACC-62
[10] = test system: U-251
[11] = test system: OVCAR-4
[12] = test system: BT-549
[13] = test system: 786-0
[14] = test system: CAKI-1
[15] = test system: NCI-H460
[16] = test system: DU-145
[17] = test system: UACC-257
[18] = test system: SF-268
[19] = test system: NCI/ADR-RES
[20] = test system: IGROV-1
[21] = test system: SR
[22] = test system: SK-MEL-2
[23] = test system: NCI-H226
[24] = test system: OVCAR-8
[25] = test system: ACHN
[26] = test system: RPMI-8226
[27] = test system: MDA-N
[28] = test system: SNB-19
[29] = test system: SK-MEL-5
[30] = test system: SK-OV-3
[31] = test system: SN12C
[32] = test system: SK-MEL-28
[33] = test system: UO-31
[34] = test system: MDA-MB-435
[35] = test system: MCF7
[36] = test system: OVCAR-3
[37] = test system: MDA-MB-231
[38] = test system: SW-620
[39] = test system: K562
[40] = test system: MOLT-4
[41] = test system: NCI-H23
[42] = test system: TK-10
[43] = test system: KM12
[44] = test system: OVCAR-5
[45] = test system: T47D
[46] = test system: A549
[47] = test system: RXF 393
[48] = test system: COLO 205
[49] = test system: HCC 2998
[50] = test system: SNB-75
[51] = test system: HT-29
[52] = test system: HOP-62
[53] = test system: M14
[54] = test system: Malme-3M
[55] = test system: LOX IMVI
[56] = test system: HL-60
[57] = test system: CCRF-CEM
[58] = test system: Hs-578T
[59] = test system: NCI-H522

C=C(C(=O)OC)[C@H]1CC/C(C)=C/CC[C@@](C)(O)C=CC[C@@]2(C)O[C@@H]2C1 was tested, and the GI50 [1] was 19.1 µM (inactive), the GI50 [2] was 20.8 µM (inactive) and the GI50 [3] was 24.2 µM. For the same compound, the GI50 [4] was 18.8 µM (inactive), the GI50 [5] was > 100 µM (inactive) and the GI50 [6] was 20.7 µM (inactive). The GI50 [7] was 44.4 µM (inactive), the GI50 [8] was 21.5 µM (inactive) and the GI50 [9] was 31.9 µM (inactive). For the same compound, the GI50 [10] was 40.4 µM (inactive), the GI50 [11] was 64.6 µM (inactive) and the GI50 [12] was 76.2 µM (inactive). The GI50 [13] was 17.6 µM (inactive), the GI50 [14] was 24.1 µM (inactive) and the GI50 [15] was > 100 µM (inactive). For the same compound, the GI50 [16] was 22.9 µM (inactive), the GI50 [17] was 27.5 µM (inactive) and the GI50 [18] was 19.6 µM (inactive). For the same compound, the GI50 [19] was 14.3 µM (inactive), the GI50 [20] was 46.6 µM (inactive) and the GI50 [21] was 9.93 µM (inactive). For the same compound, the GI50 [22] was 97.1 µM (inactive), the GI50 [23] was > 100 µM (inactive) and the GI50 [24] was 13.9 µM (inactive). The GI50 [25] was 36.3 µM (inactive), the GI50 [26] was 16.1 µM (inactive) and the GI50 [27] was 49.4 µM (inactive). The GI50 [28] was > 100 µM (inactive), the GI50 [29] was 1.04 µM (active) and the GI50 [30] was > 100 µM (inactive). For the same compound, the GI50 [31] was 47.4 µM (inactive), the GI50 [32] was 10.9 µM (inactive) and the GI50 [33] was 21.4 µM (inactive). For the same compound, the GI50 [34] was 17.3 µM (inactive), the GI50 [35] was 40.8 µM (inactive) and the GI50 [36] was 17.7 µM (inactive). The GI50 [37] was 56.9 µM (inactive), the GI50 [38] was 28.1 µM (inactive) and the GI50 [39] was > 10 µM (inactive). For the same compound, the GI50 [40] was 12.7 µM (inactive), the GI50 [41] was 24.1 µM (inactive) and the GI50 [42] was 40.6 µM (inactive). For the same compound, the GI50 [43] was 37.6 µM (inactive), the GI50 [44] was > 100 µM (inactive) and the GI50 [45] was 37.3 µM (inactive). The GI50 [46] was 81.3 µM (inactive), the GI50 [47] was 32.4 µM (inactive) and the GI50 [48] was 13.6 µM (inactive). The GI50 [49] was 42.1 µM (inactive), the GI50 [50] was > 100 µM (inactive) and the GI50 [51] was 15.2 µM (inactive). The GI50 [52] was 44.3 µM (inactive) and the GI50 [53] was 62.8 µM (inactive).
CCCCCCCC/C=C/CCCCCCCC1CC(O)C(=O)O1 (configuration not stated) was tested, and the GI50 [1] was 26.7 µM (inactive), the GI50 [2] was 50.8 µM (inactive) and the GI50 [3] was 43.1 µM. The GI50 [54] was 54.1 µM (inactive), the GI50 [4] was 41.1 µM (inactive) and the GI50 [5] was 30.7 µM (inactive). For the same compound, the GI50 [6] was 28.4 µM (inactive), the GI50 [7] was 46.3 µM (inactive) and the GI50 [9] was 63.2 µM (inactive). The GI50 [10] was 62.7 µM (inactive), the GI50 [11] was 43.2 µM (inactive) and the GI50 [12] was 28.9 µM (inactive). For the same compound, the GI50 [13] was 42.4 µM (inactive), the GI50 [15] was 25.1 µM (inactive) and the GI50 [16] was 36.7 µM (inactive). The GI50 [17] was 46.7 µM (inactive), the GI50 [18] was 46.2 µM (inactive) and the GI50 [19] was 54.1 µM (inactive). For the same compound, the GI50 [20] was 85.3 µM (inactive), the GI50 [21] was 27.7 µM (inactive) and the GI50 [23] was > 100 µM (inactive). For the same compound, the GI50 [55] was 78.3 µM (inactive), the GI50 [24] was 55.1 µM (inactive) and the GI50 [25] was 28.4 µM (inactive). For the same compound, the GI50 [26] was 25.8 µM (inactive), the GI50 [27] was 59.7 µM (inactive) and the GI50 [28] was 65.2 µM (inactive). The GI50 [56] was 35.3 µM (inactive), the GI50 [29] was 46.1 µM (inactive) and the GI50 [30] was 79.8 µM (inactive). The GI50 [31] was > 10 µM (inactive), the GI50 [32] was 72.3 µM (inactive) and the GI50 [33] was 62.8 µM (inactive). The GI50 [34] was 38.9 µM (inactive), the GI50 [35] was 32.4 µM (inactive) and the GI50 [36] was 27.9 µM (inactive). For the same compound, the GI50 [37] was > 100 µM (inactive), the GI50 [38] was 55.5 µM (inactive) and the GI50 [39] was 42 µM (inactive). The GI50 [40] was 32.9 µM (inactive), the GI50 [41] was 44.8 µM (inactive) and the GI50 [42] was > 100 µM (inactive). For the same compound, the GI50 [57] was 39.9 µM (inactive), the GI50 [44] was > 100 µM (inactive) and the GI50 [45] was 39.5 µM (inactive). The GI50 [46] was 51.6 µM (inactive), the GI50 [48] was 30.1 µM (inactive) and the GI50 [49] was 61.4 µM (inactive). The GI50 [50] was 35.7 µM (inactive), the GI50 [51] was 33.4 µM (inactive) and the GI50 [52] was 41.4 µM (inactive). For the same compound, the GI50 [53] was 41.4 µM (inactive).
In the case of CC(=O)Nc1cc2c(cc1O)CC[C@@H]1[C@@H]2CC[C@]2(C)[C@@H](O)CC[C@@H]12, the GI50 [1] is reported as 41 µM (inactive), the GI50 [58] is reported as 74.1 µM (inactive) and the GI50 [2] is reported as 33 µM (inactive). The GI50 [3] was 15.3 µM, the GI50 [54] was 21.8 µM (inactive) and the GI50 [5] was 31.3 µM (inactive). The GI50 [6] was 24.1 µM (inactive), the GI50 [7] was 35.5 µM (inactive) and the GI50 [8] was 34.5 µM (inactive). For the same compound, the GI50 [10] was 42 µM (inactive), the GI50 [11] was > 100 µM (inactive) and the GI50 [12] was 31.7 µM (inactive). For the same compound, the GI50 [13] was 63 µM (inactive), the GI50 [14] was 84.1 µM (inactive) and the GI50 [15] was 34.8 µM (inactive). The GI50 [17] was 43.4 µM (inactive), the GI50 [18] was 13.1 µM (inactive) and the GI50 [19] was 19.9 µM (inactive). For the same compound, the GI50 [20] was 82.4 µM (inactive), the GI50 [21] was 20.8 µM (inactive) and the GI50 [23] was 30.8 µM (inactive). The GI50 [55] was 34.6 µM (inactive), the GI50 [24] was 44.3 µM (inactive) and the GI50 [25] was 41.6 µM (inactive). The GI50 [59] was 20.8 µM (inactive), the GI50 [26] was 45.3 µM (inactive) and the GI50 [27] was 18.1 µM (inactive). For the same compound, the GI50 [28] was > 100 µM (inactive), the GI50 [56] was 29.6 µM (inactive) and the GI50 [29] was 22.4 µM (inactive). The GI50 [30] was > 100 µM (inactive), the GI50 [32] was 63.4 µM (inactive) and the GI50 [33] was 21.5 µM (inactive). The GI50 [34] was 19.7 µM (inactive), the GI50 [35] was 28.6 µM (inactive) and the GI50 [37] was 55 µM (inactive). For the same compound, the GI50 [38] was 27.7 µM (inactive), the GI50 [39] was 23.5 µM (inactive) and the GI50 [40] was 34.7 µM (inactive). For the same compound, the GI50 [41] was 47.3 µM (inactive), the GI50 [42] was 49.7 µM (inactive) and the GI50 [43] was 15 µM (inactive). The GI50 [57] was 23.9 µM (inactive), the GI50 [44] was 86.9 µM (inactive) and the GI50 [45] was 30.3 µM (inactive). The GI50 [46] was 36.6 µM (inactive), the GI50 [47] was 43.3 µM (inactive) and the GI50 [48] was 30 µM (inactive). For the same compound, the GI50 [49] was 37.2 µM (inactive), the GI50 [51] was 30.4 µM (inactive) and the GI50 [52] was 73.1 µM (inactive). The GI50 [53] was 39.4 µM (inactive).
